From paper PMC7980952 (Clinical cancer research : an official journal of the …, 2019)
“Also recorded” adds a separate entry of the source. Where two headings read alike, the source gives them in different places.

Experiments:
[1] = Navoximod plasma pharmacokinetics; format: in vivo, human; conditions: for PK profile (linearity, dose proportionality): 50–1000 mg BID oral, with atezolizumab; for Tmax: human, plasma, po, 50–1000 mg BID
[2] = test system: locally advanced or metastatic solid tumors; assay: Tumor response by investigators per RECIST v1.1; format: in vivo, human; conditions: with atezolizumab; for ORR in IDO1 0 patients / ORR in PDL1 0 patients / ORR in PDL1 IHC 1/2/3 patients / ORR in IDO1 IHC 1/2/3 patients / ORR in all patients: expansion
IDO1 = assay: Plasma Kyn as peripheral biomarker of IDO1 activity; format: in vivo, human
[3] = in vivo
preclinical tumor models = conditions: combination with anti-PD-L1 vs single agents; ref Spahn et al. 2015; cited from earlier work
solid tumors = conditions: ref Nayak et al. 2018, cited from earlier work
[4] = Phase Ib safety assessments: adverse events; conditions: in combination with atezolizumab
melanoma = conditions: ref Long et al. 2018, cited from earlier work
IDO = conditions: ref Siu et al. 2017; cited from earlier work
[5] = Phase 1a, 22 patients with solid tumors

For `O[C@H](C[C@H]1c2c(F)cccc2-c2cncn21)[C@H]1CC[C@H](O)CC1` [Navoximod], the “PK profile (linearity, dose proportionality)” value [1] was “linear PK profile; also recorded: dose-proportional and linear PK”, the “PK profile (linearity, dose proportionality)” value ([1]; listed as navoximod) was “dose-proportional and linear PK profile” and the Tmax ([1]; Tmax range) was 0.25 to 4 h. The Tmax ([1]; median Tmax) was ~1 h, the “PK in combination with atezolizumab compared with single agent” value ([1]; in vivo) was “consistent with single-agent PK observations” and the “Partial response (PR), best overall response” value ([2]; dose escalation, all patients (n=66)) was 9%. The “ORR in IDO1 0 patients” value ([2]; All Patients, n=19) was 0 (0%) Responders (%), the “ORR in PDL1 0 patients” value ([2]; All Patients, n=27) was 0 (0%) Responders (%) and the “ORR in PDL1 IHC 1/2/3 patients” value ([2]; All Patients, n=60) was 9 (15%) Responders (%). For the same molecule, the “ORR in IDO1 IHC 1/2/3 patients” value ([2]; All Patients, n=68) was 9 (13%) Responders (%), the “ORR in all patients” value ([2]; All Patients, n=91) was 10 (11%) Responders (%) and the “ORR in IDO1 0 patients” value ([2]; Biopsy A (CIT naïve), n=3) was 0 (0%) Responders (%). The “ORR in PDL1 0 patients” value ([2]; Biopsy A (CIT naïve), n=5) was 0 (0%) Responders (%), the “ORR in PDL1 IHC 1/2/3 patients” value ([2]; Biopsy A (CIT naïve), n=6) was 0 (0%) Responders (%) and the “ORR in IDO1 IHC 1/2/3 patients” value ([2]; Biopsy A (CIT naïve), n=8) was 0 (0%) Responders (%). The “ORR in all patients” value ([2]; Biopsy A (CIT naïve), n=11) was 0 (0%) Responders (%), the “ORR in IDO1 0 patients” value ([2]; Biopsy B (CIT naïve), n=4) was 0 (0%) Responders (%) and the “ORR in PDL1 0 patients” value ([2]; Biopsy B (CIT naïve), n=4) was 0 (0%) Responders (%). The “ORR in IDO1 IHC 1/2/3 patients” value ([2]; Biopsy B (CIT naïve), n=8) was 1 (12%) Responders (%), the “ORR in PDL1 IHC 1/2/3 patients” value ([2]; Biopsy B (CIT naïve), n=8) was 1 (12%) Responders (%) and the “ORR in all patients” value ([2]; Biopsy B (CIT naïve), n=12) was 1 (8%) Responders (%). For the same molecule, the “ORR in IDO1 0 patients” value ([2]; NSCLC (CIT naïve), n=8) was 0 (0%) Responders (%), the “ORR in PDL1 0 patients” value ([2]; NSCLC (CIT naïve), n=11) was 0 (0%) Responders (%) and the “ORR in PDL1 IHC 1/2/3 patients” value ([2]; NSCLC (CIT naïve), n=14) was 2 (14%) Responders (%). For the same molecule, the “ORR in IDO1 IHC 1/2/3 patients” value ([2]; NSCLC (CIT naïve), n=17) was 2 (12%) Responders (%), the “ORR in all patients” value ([2]; NSCLC (CIT naïve), n=26) was 2 (8%) Responders (%) and the “ORR in IDO1 0 patients” value ([2]; NSCLC (relapsed), n=1) was 0 (0%) Responders (%). The “ORR in PDL1 0 patients” value ([2]; NSCLC (relapsed), n=4) was 0 (0%) Responders (%), the “ORR in PDL1 IHC 1/2/3 patients” value ([2]; NSCLC (relapsed), n=11) was 0 (0%) Responders (%) and the “ORR in IDO1 IHC 1/2/3 patients” value ([2]; NSCLC (relapsed), n=14) was 0 (0%) Responders (%). The “ORR in all patients” value ([2]; NSCLC (relapsed), n=16) was 0 (0%) Responders (%), the “ORR in IDO1 0 patients” value ([2]; RCC (CIT naïve), n=0) was 0 (0%) Responders (%) and the “ORR in PDL1 0 patients” value ([2]; RCC (CIT naïve), n=0) was 0 (0%) Responders (%). The “ORR in IDO1 IHC 1/2/3 patients” value ([2]; RCC (CIT naïve), n=7) was 3 (43%) Responders (%), the “ORR in PDL1 IHC 1/2/3 patients” value ([2]; RCC (CIT naïve), n=7) was 3 (43%) Responders (%) and the “ORR in all patients” value ([2]; RCC (CIT naïve), n=7) was 3 (43%) Responders (%). The “ORR in IDO1 0 patients” value ([2]; TNBC (CIT naïve), n=3) was 0 (0%) Responders (%), the “ORR in PDL1 0 patients” value ([2]; TNBC (CIT naïve), n=3) was 0 (0%) Responders (%) and the “ORR in IDO1 IHC 1/2/3 patients” value ([2]; TNBC (CIT naïve), n=8) was 1 (12%) Responders (%). For the same molecule, the “ORR in PDL1 IHC 1/2/3 patients” value ([2]; TNBC (CIT naïve), n=8) was 1 (12%) Responders (%), the “ORR in all patients” value ([2]; TNBC (CIT naïve), n=11) was 1 (9%) Responders (%) and the “ORR in IDO1 0 patients” value ([2]; UBC (CIT naïve), n=0) was 0 (0%) Responders (%). For the same molecule, the “ORR in PDL1 0 patients” value ([2]; UBC (CIT naïve), n=0) was 0 (0%) Responders (%), the “ORR in IDO1 IHC 1/2/3 patients” value ([2]; UBC (CIT naïve), n=6) was 2 (33%) Responders (%) and the “ORR in PDL1 IHC 1/2/3 patients” value ([2]; UBC (CIT naïve), n=6) was 2 (33%) Responders (%). The “ORR in all patients” value ([2]; UBC (CIT naïve), n=8) was 3 (38%) Responders (%), the “Mean change in plasma Kyn from the pre-dose baseline” value (IDO1; patients receiving at least 200 mg navoximod) was “decreased at all post-dose timepoints beyond 1 hour” and the “Change in plasma Kyn” value (IDO1; relative to Cycle 1 Day 1 pre-dose levels) was “generally decreased with increasing doses”. For the same molecule, the “Chromaturia, treatment-related AE” value ([3]; human) was 20%, the “Discontinuations due to treatment related AEs” value ([3]; human) was 9% and the “Fatigue, treatment-related AE” value ([3]; human) was 22%. For the same molecule, the “Grade ≥ 3 treatment-related AEs” value ([3]; human) was 22%, the “Grade ≥ 3 treatment-related rash” value ([3]; human) was 9% and the “Patients who discontinued treatment due to rash” value ([3]; human) was 4%. For the same molecule, the “Pink colored urine (chromaturia)” value ([3]; human) was “up to 20%”, the Rash overall ([3]; human) was “around 20%” and the “Rash, treatment-related AE” value ([3]; human) was 22%. The “Treatment related serious AEs” value ([3]; human) was 10%, the “Relationship between dose and incidence or severity of AEs” value [3] was “no clear relationship” and the “Tolerability of the combination” value [3] was “generally well-tolerated”. For the same molecule, the “Activation of intratumoral CD8+ T cells and tumor growth inhibition” value (preclinical tumor models) was “more effectively activates intratumoral CD8+ T cells and inhibits tumor growth compared to either single agent alone”, the “Clinical activity as a single agent” value (solid tumors; [5]) was “limited clinical activity” and the “Tolerability as a single agent” value (solid tumors; [5]) was “generally well-tolerated”. The “Hepatic adverse events, single agent” value (solid tumors) was “Hepatic adverse events had been reported” and the MTD [4] was “not reached; also recorded: not identified; also recorded: No MTD was defined”.
For pembrolizumab, the mPFS (melanoma; pembrolizumab monotherapy) is listed as 4.9 mo.
For `NS(=O)(=O)NCCNc1nonc1C(=NO)Nc1ccc(F)c(Br)c1` [epacadostat], the mPFS (melanoma; epacadostat in combination with pembrolizumab) is listed as 4.7 mo.
For `C[C@@H](C(=O)Nc1ccc(Cl)cc1)C1CCC(c2ccnc3ccc(F)cc23)CC1` (some centres unmarked) [BMS-986205], the “In vitro potency compared with epacadostat and navoximod” value (IDO) is listed as “greater in vitro potency”.
